What all share (assay): competitive isoTOP-ABPP
Experiment [1] deals with T1, RPS10 40S ribosomal protein S10 (Homo sapiens, UniProt P46783).
T1 construct: isoTOP-ABPP experiments performed in cell lysates (in vitro); endogenous in cells; host or cells: soluble proteome of human cancer cell lines (MDA-MB-231; Ramos and Jurkat also prepared)
The experiment is classed as binding. Particulars: for R value (DMSO/fragment) for probe 1 labeling: P46783_K139; for R value (DMSO/fragment) for probe 1 labeling / isoTOP-ABPP reactivity ratio at lysine P46783_K139 / isoTOP-ABPP ratio (R) at liganded lysine P46783_K139: 50 uM, in vitro; for R value (DMSO/fragment) for probe 1 labeling / isoTOP-ABPP reactivity ratio at lysine P46783_K139: 231 sol; for isoTOP-ABPP ratio (R) at liganded lysine P46783_K139: sol, 231. Put shortly: (§1)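 Lysine engagement is reported as R, the MS1 peak-area ratio of heavy-tagged DMSO to light-tagged compound samples. Final fragment concentrations were 50 μM for activated esters and 100 μM for guanidinylating agents; STP-alkyne probe 0.1 mM, 1 h.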

In experiment [2] the target is T2, SMPD1 Sphingomyelin phosphodiesterase (Homo sapiens, UniProt P17405).
T2 construct: isoTOP-ABPP experiments performed in cell lysates (in vitro); endogenous in cells; host or cells: soluble proteome of human cancer cell lines (MDA-MB-231; Ramos and Jurkat also prepared)
T2 sequence (P17405 47-631): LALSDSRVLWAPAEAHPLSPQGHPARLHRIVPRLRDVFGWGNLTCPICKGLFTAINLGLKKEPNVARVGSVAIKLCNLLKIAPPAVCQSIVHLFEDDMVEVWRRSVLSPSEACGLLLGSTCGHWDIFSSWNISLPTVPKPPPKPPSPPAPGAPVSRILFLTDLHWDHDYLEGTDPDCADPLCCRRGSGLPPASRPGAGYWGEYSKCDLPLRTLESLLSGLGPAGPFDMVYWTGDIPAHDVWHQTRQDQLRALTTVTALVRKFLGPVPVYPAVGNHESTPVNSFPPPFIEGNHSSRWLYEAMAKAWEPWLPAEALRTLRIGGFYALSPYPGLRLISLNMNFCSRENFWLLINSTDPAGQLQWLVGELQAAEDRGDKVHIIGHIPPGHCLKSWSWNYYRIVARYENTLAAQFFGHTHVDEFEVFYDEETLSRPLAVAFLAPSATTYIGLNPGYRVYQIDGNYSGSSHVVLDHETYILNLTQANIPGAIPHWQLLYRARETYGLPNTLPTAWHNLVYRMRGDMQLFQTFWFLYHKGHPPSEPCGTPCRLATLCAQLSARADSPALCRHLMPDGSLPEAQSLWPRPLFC
The class given is binding. The note with it: for isoTOP-ABPP ratio (R) at liganded lysine P17405_K118: sol, 231. Put shortly:
as §1

Experiment [3] has as its target T3, NONO Non-POU domain-containing octamer-binding protein (Homo sapiens, UniProt Q15233).
T3 construct: isoTOP-ABPP experiments performed in cell lysates (in vitro); endogenous in cells; host or cells: soluble proteome of human cancer cell lines (MDA-MB-231; Ramos and Jurkat also prepared)
T3 sequence (Q15233 1-471): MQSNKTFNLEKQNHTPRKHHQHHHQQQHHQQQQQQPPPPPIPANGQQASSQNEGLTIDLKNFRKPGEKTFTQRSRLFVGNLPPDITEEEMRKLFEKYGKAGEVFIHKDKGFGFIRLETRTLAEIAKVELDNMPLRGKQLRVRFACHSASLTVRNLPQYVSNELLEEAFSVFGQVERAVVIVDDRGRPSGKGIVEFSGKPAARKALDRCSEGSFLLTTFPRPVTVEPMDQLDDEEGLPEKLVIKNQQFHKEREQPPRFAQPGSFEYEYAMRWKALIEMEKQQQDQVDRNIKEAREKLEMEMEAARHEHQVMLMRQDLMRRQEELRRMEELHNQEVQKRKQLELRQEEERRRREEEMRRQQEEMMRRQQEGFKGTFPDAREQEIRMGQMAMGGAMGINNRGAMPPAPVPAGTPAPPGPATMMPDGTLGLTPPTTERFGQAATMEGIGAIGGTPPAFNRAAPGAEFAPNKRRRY
The note with it: for R value (DMSO/fragment) for probe 1 labeling: Q15233_K467; for R value (DMSO/fragment) for probe 1 labeling / isoTOP-ABPP reactivity ratio at lysine Q15233_K467 / isoTOP-ABPP ratio (R) at liganded lysine Q15233_K467: 50 uM, in vitro; for R value (DMSO/fragment) for probe 1 labeling / isoTOP-ABPP reactivity ratio at lysine Q15233_K467: 231 sol; for isoTOP-ABPP ratio (R) at liganded lysine Q15233_K467: sol, 231. Put shortly:
as §1

`O=C(CCc1cn(-c2ccccc2)nc1-c1ccccc1)Oc1c(F)c(F)c(F)c(F)c1F` [fragment 19, Pentafluorophenyl 3-(1,3-diphenyl-1H-pyrazol-4-yl)propanoate]: in experiment [1], the “R value (DMSO/fragment) for probe 1 labeling” value (“R value (DMSO/fragment)” for short) is on record as 1.0.
As to `O=C(Oc1c(F)c(F)c(F)c(F)c1F)C(c1ccccc1)c1ccccc1` [fragment 20, Pentafluorophenyl 2,2-diphenylacetate], the “R value (DMSO/fragment)” value in experiment [1] stood at 0.6; in experiment [2] (P17405_K118, 50 uM, 231 sol, in vitro), 1.4; in experiment [3] it was 1.2.
Consider `O=C(Oc1c(F)c(F)c(F)c(F)c1F)c1cc(C(F)(F)F)cc(C(F)(F)F)c1` [fragment 21, Pentafluorophenyl 3,5-bis(trifluoromethyl)benzoate], for which the “R value (DMSO/fragment)” value in experiment [1] turned out to be 0.5; in experiment [3], 1.5.
On to `Cn1cc(CC(=O)Oc2c(F)c(F)c(F)c(F)c2F)c2ccccc21` [fragment 22, Pentafluorophenyl 2-(1-methyl-1H-indol-3-yl)acetate], for which, in experiment [1], the “R value (DMSO/fragment)” value is 0.9.
As to `O=C(Oc1c(F)c(F)c(F)c(F)c1F)C1CCN(C(=O)OCc2ccccc2)CC1` [fragment 24, 1-Benzyl 4-(pentafluorophenyl) piperidine-1,4-dicarboxylate], the “isoTOP-ABPP reactivity ratio at lysine P46783_K139” value in experiment [1] amounted to 1.2. Moreover, in experiment [3], the “isoTOP-ABPP reactivity ratio at lysine Q15233_K467” value is 1.0.
Consider `O=C(CCc1coc2cc(F)ccc2c1=O)Oc1c(F)c(F)c(F)c(F)c1F` [fragment 26, Pentafluorophenyl 3-(7-fluoro-4-oxo-4H-chromen-3-yl)propanoate], for which, in experiment [1], the “isoTOP-ABPP reactivity ratio at lysine P46783_K139” value was 1.0.
Regarding `O=C(CCc1cn(-c2ccccc2)nc1-c1ccccc1)Oc1ccc([N+](=O)[O-])cc1[N+](=O)[O-]` [fragment 29, 2,4-Dinitrophenyl 3-(1,3-diphenyl-1H-pyrazol-4-yl)propanoate], the “isoTOP-ABPP reactivity ratio at lysine P46783_K139” value in experiment [1] worked out at 20.0. Besides, the “isoTOP-ABPP reactivity ratio at lysine P17405_K118” value in experiment [2] (50 uM, 231 sol, in vitro) was 2.5.
As for `O=C(Oc1ccc([N+](=O)[O-])cc1[N+](=O)[O-])C(c1ccccc1)c1ccccc1` [fragment 30, 2,4-Dinitrophenyl 2,2-diphenylacetate], the “isoTOP-ABPP reactivity ratio at lysine P46783_K139” value in experiment [1] is reported as 1.2.
For the compound `O=C(Oc1ccc([N+](=O)[O-])cc1[N+](=O)[O-])c1cc(C(F)(F)F)cc(C(F)(F)F)c1` [fragment 31, 2,4-Dinitrophenyl 3,5-bis(trifluoromethyl)benzoate], the “isoTOP-ABPP reactivity ratio at lysine Q15233_K467” value in experiment [3] was found to be 1.3.
The same measure, in the same setting: the same measure for `Cn1cc(CC(=O)Oc2ccc([N+](=O)[O-])cc2[N+](=O)[O-])c2ccccc21` [fragment 32, 2,4-Dinitrophenyl 2-(1-methyl-1H-indol-3-yl)acetate]: 1.2.
With `COc1cc(CCC(=O)Oc2ccc([N+](=O)[O-])cc2[N+](=O)[O-])cc(OC)c1OC` [fragment 33, 2,4-Dinitrophenyl 3-(3,4,5-trimethoxyphenyl)propanoate], in experiment [1], the “isoTOP-ABPP reactivity ratio at lysine P46783_K139” value amounted to 0.7. The “isoTOP-ABPP reactivity ratio at lysine Q15233_K467” value in experiment [3] came out at 3.7.
As for `O=C(Oc1ccc([N+](=O)[O-])cc1[N+](=O)[O-])c1ccc2ccccc2n1` [fragment 35, 2,4-Dinitrophenyl quinoline-2-carboxylate], the “isoTOP-ABPP ratio (R) at liganded lysine P17405_K118” value in experiment [2] (50 uM, in vitro) was 1.4.
For `O=C(CCc1coc2cc(F)ccc2c1=O)Oc1ccc([N+](=O)[O-])cc1[N+](=O)[O-]` [fragment 36, 2,4-Dinitrophenyl 3-(7-fluoro-4-oxo-4H-chromen-3-yl)propanoate], the “isoTOP-ABPP ratio (R) at liganded lysine P46783_K139” value in experiment [1] is on record as 0.7.
Consider `O=C(Oc1ccc([N+](=O)[O-])cc1[N+](=O)[O-])c1ccc(-c2ccccc2)cc1` [fragment 37, 2,4-Dinitrophenyl [1,1′-biphenyl]-4-carboxylate], for which the “isoTOP-ABPP ratio (R) at liganded lysine P46783_K139” value in experiment [1] was 0.6. In addition, the “isoTOP-ABPP ratio (R) at liganded lysine Q15233_K467” value in experiment [3] came out at 0.8.
Consider `O=C(CC12CC3CC(CC(C3)C1)C2)Oc1ccc([N+](=O)[O-])cc1[N+](=O)[O-]` [fragment 38, 2,4-Dinitrophenyl 2-(adamantan-1-yl)acetate], for which the “isoTOP-ABPP ratio (R) at liganded lysine P46783_K139” value in experiment [1] turned out to be 1.0. Also, the “isoTOP-ABPP ratio (R) at liganded lysine P17405_K118” value in experiment [2] (50 uM, in vitro) was 1.2.
For `O=C(Oc1ccc([N+](=O)[O-])cc1[N+](=O)[O-])c1ccc(Oc2ccccc2)cc1` [fragment 39, 2,4-Dinitrophenyl 4-phenoxybenzoate], the “isoTOP-ABPP ratio (R) at liganded lysine P17405_K118” value in experiment [2] (50 uM, in vitro) came out at 0.8.
With `O=C(Oc1ccc([N+](=O)[O-])cc1[N+](=O)[O-])c1ccccc1Nc1cccc(C(F)(F)F)c1` [fragment 40, 2,4-Dinitrophenyl 2-((3-(trifluoromethyl)phenyl)amino)benzoate], the “isoTOP-ABPP ratio (R) at liganded lysine Q15233_K467” value in experiment [3] is on record as 4.1.
For `CC(C)(C)OC(=O)NCCCC(=O)Oc1ccc([N+](=O)[O-])cc1[N+](=O)[O-]` [fragment 41, 2,4-Dinitrophenyl 4-((tert-butoxycarbonyl)amino)butanoate], in experiment [2] (50 uM, in vitro), the “isoTOP-ABPP ratio (R) at liganded lysine P17405_K118” value is reported as 1.5.
`O=C(Oc1ccc([N+](=O)[O-])cc1[N+](=O)[O-])C(c1ccccc1)(c1ccccc1)c1ccccc1` [fragment 42, 2,4-Dinitrophenyl 2,2,2-triphenylacetate]: the “isoTOP-ABPP ratio (R) at liganded lysine P46783_K139” value in experiment [1] turned out to be 1.0. For the same compound, the “isoTOP-ABPP ratio (R) at liganded lysine Q15233_K467” value in experiment [3] worked out at 2.5.
Regarding `CC(=O)Oc1ccc([N+](=O)[O-])cc1[N+](=O)[O-]` [fragment 43, 2,4-Dinitrophenyl acetate], in experiment [3], the “isoTOP-ABPP ratio (R) at liganded lysine Q15233_K467” value was found to be 3.1.
On to `N#Cc1ccc(C(=O)Oc2ccc([N+](=O)[O-])cc2[N+](=O)[O-])cc1` [fragment 44, 2,4-Dinitrophenyl 4-cyanobenzoate], for which the “isoTOP-ABPP ratio, lysine P46783_K139” value in experiment [1] (50 uM_231_sol_in vitro) worked out at 0.6. Further, the “isoTOP-ABPP ratio, lysine P17405_K118” value in experiment [2] (50 uM_231_sol_in vitro) worked out at 0.8. The “isoTOP-ABPP ratio, lysine Q15233_K467” value in experiment [3] (50 uM_231_sol_in vitro) was 0.9.
Consider `O=C(CCc1ccc2c(c1)OCO2)Oc1ccc([N+](=O)[O-])cc1[N+](=O)[O-]` [fragment 45, 2,4-Dinitrophenyl 3-(benzo[d][1,3]dioxol-5-yl)propanoate], for which the “isoTOP-ABPP ratio, lysine P17405_K118” value in experiment [2] (50 uM_231_sol_in vitro) is given as 1.1.
Consider `O=C(ON1C(=O)CCC1=O)c1cc(C(F)(F)F)cc(C(F)(F)F)c1` [fragment 46, 3,5-Bis(trifluoromethyl)benzoic acid NHS ester], for which, in experiment [2] (50 uM_231_sol_in vitro), the “isoTOP-ABPP ratio, lysine P17405_K118” value is listed as 0.7. For the same compound, the “isoTOP-ABPP ratio, lysine Q15233_K467” value in experiment [3] (50 uM_231_sol_in vitro) is given as 0.4.
Regarding `O=C(Oc1c(F)c(F)cc(F)c1F)c1cc(C(F)(F)F)cc(C(F)(F)F)c1` [fragment 48, 2,3,5,6-Tetrafluorophenyl 3,5-bis(trifluoromethyl)benzoate], the “isoTOP-ABPP ratio, lysine P46783_K139” value in experiment [1] (50 uM_231_sol_in vitro) was 0.8.
Turning to `COC(=O)NC(=NC(=O)OCC1c2ccccc2-c2ccccc21)n1cccn1` [fragment 49, N-Methoxycarbonyl-N′-9-fluorenylmethoxycarbonyl-pyrazole-1-carboxamidine], the “isoTOP-ABPP ratio, lysine P46783_K139” value in experiment [1] (100 uM_231_sol_in vitro) is recorded as 20.0. Besides, the “isoTOP-ABPP ratio, lysine P17405_K118” value in experiment [2] (100 uM_231_sol_in vitro) is recorded as 8.4. Also, the “isoTOP-ABPP ratio, lysine Q15233_K467” value in experiment [3] (100 uM_231_sol_in vitro) worked out at 4.9.
As to `CC(C)(C)OC(=O)N=C(NC(=O)OC(C)(C)C)n1cccn1` [fragment 50, reference compound], the “isoTOP-ABPP ratio, lysine P46783_K139” value in experiment [1] (100 uM_231_sol_in vitro) was determined as 1.1. Also, the “isoTOP-ABPP ratio, lysine P17405_K118” value in experiment [2] (100 uM_231_sol_in vitro) is 1.3.
Take `NC(=O)c1cc(C(F)(F)F)cc(C(F)(F)F)c1` [fragment 51, reference compound]: the “isoTOP-ABPP ratio, lysine P17405_K118” value in experiment [2] (50 uM_231_sol_in vitro) was determined as 0.9.

(Values after patent US20210255193A1, “LYSINE REACTIVE PROBES AND USES THEREOF” (The Scripps Research Institute, priority 2017, published 2021).)
